Laboratory results: patent publication US7462600B2, “Macrolides” (Pfizer Inc, priority 2004, dated 2008)
Values after ≈ are worked out from the molar mass of the structure shown. Like-named read-outs stand apart in the source and are kept apart here.

How the values were obtained:
Assay type in all cases: cell-based
[1] = tested on: Streptococcus pneumoniae 1095; conditions: microtiter broth dilution
Procedure, shortened: (§1)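 DMSO stocks, 40 mg/ml; trays scored for MIC following M100-S14 (NCCLS).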

[2] = tested on: Streptococcus pneumoniae 1175; conditions: microtiter broth dilution
Procedure, shortened: as §1

[3] = tested on: Haemophilus influenzae 1218; test: MIC, microtiter broth dilution (NCCLS M100-S14), H. influenzae 1218 (susceptible)
Procedure, shortened: as §1

[4] = tested on: Streptococcus pyogenes 1079; test: MIC, microtiter broth dilution (NCCLS M100-S14), S. pyogenes 1079 (ermB)
Procedure, shortened: as §1

[5] = tested on: Streptococcus pneumoniae 1016; test: MIC, microtiter broth dilution (NCCLS M100-S14), S. pneumoniae 1016 (susceptible)
Procedure, shortened: as §1

[6] = H. influenzae 1218 (susceptible)
[7] = S. pneumoniae 1016 (susceptible)

Compound | MIC S. pneumo. 1095 ([1]; Streptococcus pneumoniae 1095) | MIC S. pneumo. 1175 ([2]; Streptococcus pneumoniae 1175) | MIC H. influenzae 1218 ([3]; Haemophilus influenzae 1218) | MIC S. pyogenes 1079 ([4]; Streptococcus pyogenes 1079) | MIC S. pneumo. 1016 ([5]; Streptococcus pneumoniae 1016) | MIC S. pneumo. 1095 ([1]; S. pneumoniae 1095 (ermB)) | MIC S. pneumo. 1175 ([2]; S. pneumoniae 1175 (mefA)) | MIC H. influenzae 1218 [3, 6] | MIC S. pyogenes 1079 ([4]; S. pyogenes 1079 (ermB)) | MIC S. pneumo. 1016 [5, 7]
CCC1OC(=O)C(C)C(=O)C(C)C(OC2OC(C)CC(N(C)C)C2O)C(C)(OC)CC(C)C(=O)C(C)C2N(C3CN(Cc4cccc5ncccc45)C3)C(=O)OC12C (stereo not drawn) [Example 1.06, 3-descladinosyl-11,12-dideoxy-6-O-methyl-3-oxo-12,11-(oxycarbonyl-(1-((quinolin-5-yl)-methyl)-azetidin-3-yl)-imino)-erythromycin A] | <0.06 µg/mL | <0.06 µg/mL | 1 µg/mL (≈ 1.24 µM) | 4 µg/mL (≈ 4.94 µM) | <0.06 µg/mL |  |  |  |  | 
CCC1OC(=O)C(C)C(=O)C(C)C(OC2OC(C)CC(N(C)C)C2O)C(C)(OC)CC(C)C(=O)C(C)C2N(C3CN(Cc4ccn[nH]4)C3)C(=O)OC12C (stereo not drawn) [Example 1.18, (1H-pyrazol-5-yl)methyl] | 1 µg/mL (≈ 1.34 µM) | 2 µg/mL (≈ 2.67 µM) | 0.25 µg/mL (≈ 0.334 µM) | >64.00 µg/mL | <0.06 µg/mL |  |  |  |  | 
CCC1OC(=O)C(C)C(=O)C(C)C(OC2OC(C)CC(N(C)C)C2O)C(C)(OC)CC(C)C(=O)C(C)C2N(CC3CCCN3C(=O)c3ccc4ncccc4c3)C(=O)OC12C (stereo not drawn) [10.06] |  |  |  |  |  | <0.06 µg/mL | 0.12 µg/mL (≈ 0.141 µM) | 2 µg/mL (≈ 2.35 µM) | 64 µg/mL (≈ 75.2 µM) | <0.06 µg/mL
CCC1OC(=O)C(C)C(=O)C(C)C(OC2OC(C)CC(N(C)C)C2O)C(C)(OC)CC(C)C(=O)C(C)C2N(CC3CN(Cc4ccc5ncccc5c4)C3)C(=O)OC12C (stereo not drawn) [Example 4.14, 3-descladinosyl-11,12-dideoxy-6-O-methyl-3-oxo-12,11-(oxycarbonyl-(1-((quinolin-6-yl)-methyl)-(azetidin-3-yl)-methyl)-imino)-erythromycin A] | <0.06 µg/mL | <0.06 µg/mL | 0.5 µg/mL (≈ 0.608 µM) | 8 µg/mL (≈ 9.72 µM) | <0.06 µg/mL |  |  |  |  | 
CCC1OC(=O)C(C)C(=O)C(C)C(OC2OC(C)CC(N(C)C)C2O)C(C)(OC)CC(C)C(=O)C(C)C2N(C3CN(S(=O)(=O)c4cccc5c(C#N)cccc45)C3)C(=O)OC12C (stereo not drawn) [Example 3.49] | <0.06 µg/mL | <0.06 µg/mL | 0.5 µg/mL (≈ 0.566 µM) | 0.5 µg/mL (≈ 0.566 µM) | <0.06 µg/mL |  |  |  |  | 
CC[C@H]1OC(=O)[C@H](C)C(=O)[C@H](C)[C@@H](O[C@@H]2O[C@H](C)C[C@H](N(C)C)[C@H]2O)[C@](C)(OC)C[C@@H](C)C(=O)[C@H](C)[C@H]2N(CC3(C)CN(Cc4c[nH]nc4-c4ccccc4)C3)C(=O)O[C@]12C [6.09] | <0.06 µg/mL | 0.25 µg/mL (≈ 0.293 µM) | 0.5 µg/mL (≈ 0.587 µM) | >64.00 µg/mL | <0.06 µg/mL |  |  |  |  | 
CCC1OC(=O)C(C)C(=O)C(C)C(OC2OC(C)CC(N(C)C)C2O)C(C)(OC)CC(C)C(=O)C(C)C2N(C3CN(Cc4ccnc5ccccc45)C3)C(=O)OC12C (stereo not drawn) [Example 1.16, 3-descladinosyl-11,12-dideoxy-6-O-methyl-3-oxo-12,11-(oxycarbonyl-(1-((quinolin-4-yl)-methyl)-azetidin-3-yl)-imino)-erythromycin A] | <0.06 µg/mL | 0.25 µg/mL (≈ 0.309 µM) | 0.5 µg/mL (≈ 0.618 µM) | 4.25 µg/mL (≈ 5.25 µM) | <0.06 µg/mL |  |  |  |  | 
CCC1OC(=O)C(C)C(=O)C(C)C(OC2OC(C)CC(N(C)C)C2O)C(C)(OC)CC(C)C(=O)C(C)C2N(C3CN(S(=O)(=O)c4cccc(Cl)c4)C3)C(=O)OC12C (stereo not drawn) [Example 3.107, 3-descladinosyl-11,12-dideoxy-6-O-methyl-3-oxo-12,11-(oxycarbonyl-(1-(3-chlorobenzene-1-sulfonyl)-azetidin-3-yl)-imino)-erythromycin A] | <0.063 µg/mL | <0.063 µg/mL | 025 µg/mL (≈ 29.7 µM) | 1 µg/mL (≈ 1.19 µM) | <0.063 µg/mL |  |  |  |  | 
CCC1OC(=O)C(C)C(=O)C(C)C(OC2OC(C)CC(N(C)C)C2O)C(C)(OC)CC(C)C(=O)C(C)C2N(CC3CCCN3C(=O)c3ccnc4ccccc34)C(=O)OC12C.O=CO (stereo not drawn) [10.10] |  |  |  |  |  | <0.06 µg/mL | 1 µg/mL | 4 µg/mL | >64.00 µg/mL | <0.06 µg/mL
CCC1OC(=O)C(C)C(=O)C(C)C(OC2OC(C)CC(N(C)C)C2O)C(C)(OC)CC(C)C(=O)C(C)C2N(CC3CN(C(=O)c4ccnc5ccccc45)C3)C(=O)OC12C.O=CO (stereo not drawn) [4.37] | 0.25 µg/mL | <0.06 µg/mL | 0.5 µg/mL | >64.00 µg/mL | <0.06 µg/mL |  |  |  |  | 
CCC1OC(=O)C(C)C(=O)C(C)C(OC2OC(C)CC(N(C)C)C2O)C(C)(OC)CC(C)C(=O)C(C)C2N(CC3(O)CN(S(=O)(=O)c4cccc5cccnc45)C3)C(=O)OC12C (stereo not drawn) [7.06] |  |  |  |  |  | 32 µg/mL (≈ 36 µM) | 0.5 µg/mL (≈ 0.562 µM) | 0.5 µg/mL (≈ 0.562 µM) | >64.00 µg/mL | <0.06 µg/mL
CC[C@H]1OC(=O)[C@H](C)C(=O)[C@H](C)[C@@H](O[C@@H]2O[C@H](C)C[C@H](N(C)C)[C@H]2O)[C@](C)(OC)C[C@@H](C)C(=O)[C@H](C)[C@H]2N(CC3(O)CN(Cc4ccc(-c5cncnc5)cc4)C3)C(=O)O[C@]12C [7.12] |  |  |  |  |  | >64.00 µg/mL | 0.5 µg/mL (≈ 0.577 µM) | 2 µg/mL (≈ 2.31 µM) | >64.00 µg/mL | <0.06 µg/mL
CCC1OC(=O)C(C)C(=O)C(C)C(OC2OC(C)CC(N(C)C)C2O)C(C)(OC)CC(C)C(=O)C(C)C2N(C3CN(S(=O)(=O)c4ccc(C)c5ncccc45)C3)C(=O)OC12C (stereo not drawn) [Example 3.111, 3-descladinosyl-11,12-dideoxy-6-O-methyl-3-oxo-12,11-(oxycarbonyl-(1-(8-methylquinoline-5-sulfonyl)-azetidin-3-yl)-imino)erythromycin A] | <0.063 µg/mL | <0.063 µg/mL | 0.5 µg/mL (≈ 0.573 µM) | 1 µg/mL (≈ 1.15 µM) | <0.063 µg/mL |  |  |  |  | 
CC[C@H]1OC(=O)[C@H](C)C(=O)[C@H](C)[C@@H](O[C@@H]2O[C@H](C)C[C@H](N(C)C)[C@H]2O)[C@](C)(OC)C[C@@H](C)C(=O)[C@H](C)[C@H]2N(CC3(O)CN(Cc4ccn(-c5cccnc5)n4)C3)C(=O)O[C@]12C [7.13] |  |  |  |  |  | 1 µg/mL (≈ 1.17 µM) | 1 µg/mL (≈ 1.17 µM) | 2 µg/mL (≈ 2.34 µM) | >64.00 µg/mL | <0.06 µg/mL
CCC1OC(=O)C(C)C(=O)C(C)C(OC2OC(C)CC(N(C)C)C2O)C(C)(OC)CC(C)C(=O)C(C)C2N(CC3CN(Cc4c[nH]c5cnccc45)C3)C(=O)OC12C (stereo not drawn) [4.19] | <0.06 µg/mL | 1 µg/mL (≈ 1.23 µM) | 0.5 µg/mL (≈ 0.616 µM) | 64 µg/mL (≈ 78.8 µM) | <0.06 µg/mL |  |  |  |  | 
CCC1OC(=O)C(C)C(=O)C(C)C(OC2OC(C)CC(N(C)C)C2O)C(C)(OC)CC(C)C(=O)C(C)C2N(C3CN(Cc4ccc(C#N)cc4)C3)C(=O)OC12C (stereo not drawn) [Example 1.14, 4-cyanobenzyl] | 1 µg/mL (≈ 1.28 µM) | 0.5 µg/mL (≈ 0.639 µM) | 0.25 µg/mL (≈ 0.319 µM) | >64.00 µg/mL | <0.06 µg/mL |  |  |  |  | 
CCC1OC(=O)C(C)C(=O)C(C)C(OC2OC(C)CC(N(C)C)C2O)C(C)(OC)CC(C)C(=O)C(C)C2N(C3CN(C(c4ccccc4)c4cccnc4)C3)C(=O)OC12C (single isomer, unassigned) [Example 1.67, phenyl-(pyridin-3-yl)methyl (*)] | <0.06 µg/mL | <0.06 µg/mL | 0.5 µg/mL (≈ 0.599 µM) | 16 µg/mL (≈ 19.2 µM) | <0.06 µg/mL |  |  |  |  | 
CCC1OC(=O)C(C)C(=O)C(C)C(OC2OC(C)CC(N(C)C)C2O)C(C)(OC)CC(C)C(=O)C(C)C2N(CC3CCCN3C(=O)c3ccc4[nH]ncc4c3)C(=O)OC12C (stereo not drawn) [10.32] |  |  |  |  |  | <0.06 µg/mL | 0.5 µg/mL (≈ 0.595 µM) | 1 µg/mL (≈ 1.19 µM) | >64.00 µg/mL | <0.06 µg/mL
CCC1OC(=O)C(C)C(=O)C(C)C(OC2OC(C)CC(N(C)C)C2O)C(C)(OC)CC(C)C(=O)C(C)C2N(C3CN(S(=O)(=O)c4ccc(OC(F)F)c5ncccc45)C3)C(=O)OC12C (stereo not drawn) [Example 3.113, 3-descladinosyl-11,12-dideoxy-6-O-methyl-3-oxo-12,11-(oxycarbonyl-(1-(8-(difluoromethoxy)quinoline-5-sulfonyl)-azetidin-3-yl)-imino)-erythromycin A] | <0.063 µg/mL | <0.063 µg/mL | 1 µg/mL (≈ 1.08 µM) | 0.5 µg/mL (≈ 0.541 µM) | <0.063 µg/mL |  |  |  |  | 
CCC1OC(=O)C(C)C(=O)C(C)C(OC2OC(C)CC(N(C)C)C2O)C(C)(OC)CC(C)C(=O)C(C)C2N(CC3CCN(Cc4cnc5ccccc5c4)C3)C(=O)OC12C (stereo not drawn) [11.03] |  |  |  |  |  | <0.06 µg/mL | 0.5 µg/mL (≈ 0.597 µM) | 2 µg/mL (≈ 2.39 µM) | 64 µg/mL (≈ 76.5 µM) | <0.06 µg/mL
CCC1OC(=O)C(C)C(=O)C(C)C(OC2OC(C)CC(N(C)C)C2O)C(C)(OC)CC(C)C(=O)C(C)C2N(CC3CCCN3C(=O)c3cc4ncccc4[nH]3)C(=O)OC12C (stereo not drawn) [10.42] |  |  |  |  |  | <0.06 µg/mL | <0.06 µg/mL | 0.5 µg/mL (≈ 0.595 µM) | 64 µg/mL (≈ 76.2 µM) | <0.06 µg/mL
